# Assay results published in patent publication US11504349B2, “Composition for preventing or treating TNF-related diseases, containing novel derivative as active ingredient, and method for inhibiting TNF activity by using same” (ILAB, priority 2017, dated 2022).
# Target: TNF (Homo sapiens, UniProt P01375)
# Experiment: TNF-neutralization bioassay: TNF-induced cell death of LM cells (MTT)
# Assay type: cell-based
# Settings: compound 50 μM, TNF 20 ng/ml, actinomycin D, LM cells, 24 hours
# Experimental: (§1) First, the addition of recombinant TNF to mouse fibroblast LM cells induces cell death, and thus, by using the same, the TNF-neutralization bioassay was constructed. In other words, LM cells were pretreated with TNF (20 ng/ml) and the compounds synthesized in the above examples at various concentrations (5×10^4 cells/well), and a sensitizer actinomycin D ([…]) was added, and cultured in a CO2 incubator for 24 hours, and then the MTT assay was carried out. At this time, 10 μl of MTT (5 mg/ml stock) was added, reacted for 4 hours, and then dissolved in DMSO to measure the absorbance at 570 nm. First, the TNF cell death inhibition/neutralization action of TNF-target expected compounds at single concentration (50 or 10 μM) was measured. Second, IC50 values were determined by treating with the compounds having an excellent effect at different concentrations. The % inhibition of TNF was calculated using the following formula: % inhibition of TNF=(OD value of a group treated with TNF and compound−OD value of TNF treated group/(OD value of TNF untreated group−OD value of TNF treated group)×100.
# (§2) IC50 values were statistically analyzed using Prism 6 (GraphPad) (IC50: 50% inhibitory concentration, CC50: 50% cytotoxic concentration).
# Chain of TNF (P01375 77-233 limits assumed): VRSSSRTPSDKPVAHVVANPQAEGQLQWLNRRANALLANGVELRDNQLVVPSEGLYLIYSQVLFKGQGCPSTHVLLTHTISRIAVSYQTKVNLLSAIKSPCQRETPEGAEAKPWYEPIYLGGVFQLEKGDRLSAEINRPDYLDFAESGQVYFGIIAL
row,SMILES,inhibition at 50 µM [%]
1,"O=C(O)c1c(-c2ccco2)oc2ccc(Br)cc2c1=O [Example 24, 2-(2-furanyl)-3-carboxy-6-bromo-(4H)-4-benzopyranone]",76.3
2,"COc1cccc2c(=O)c(C(=O)O)c(-c3ccc(Cl)cc3)oc12 [Example 74, 2-(4-chlorophenyl)-3-carboxy-8-methoxy-(4H)-4-benzopyranone]",79
3,"Cc1cccc2c(=O)c(C(=O)O)c(-c3cc(F)ccc3F)oc12 [Example 58, 2-(2,5-difluorophenyl)-3-carboxy-8-methyl-(4H)-4-benzopyranone]",33.8
4,"Cc1cccc2c(=O)c(C(=O)O)c(-c3cccs3)oc12 [Example 31, 2-(2-thiophenyl)-3-carboxy-8-methyl-(4H)-4-benzopyranone]",24.8
5,"COc1ccc2c(=O)c(C(=O)O)c(-c3ccc(OC)c(OC)c3)oc2c1 [Example 9, 2-(3,4-dimethoxyphenyl)-3-carboxy-7-methoxy-(4H)-4-benzopyranone]",49.2
6,"COc1ccc2c(=O)c(C(=O)O)c(-c3ccccc3Cl)oc2c1 [Example 10, 2-(2-chlorophenyl)-3-carboxy-7-methoxy-(4H)-4-benzopyranone]",45.6
7,"O=C(O)c1c(-c2cccs2)oc2ccccc2c1=O [Example 15, 2-(2-thiophenyl)-3-carboxy-(4H)-4-benzopyranone]",47.5
8,"Cc1ccc2oc(-c3ccc(Cl)cc3)c(C(=O)O)c(=O)c2c1 [Example 70, 2-(4-chlorophenyl)-3-carboxy-6-methyl-(4H)-4-benzopyranone]",28.9
9,"Cc1ccc2c(=O)c(C(=O)O)c(-c3ccc(F)c(F)c3)oc2c1 [Example 65, 2-(3,4-difluorophenyl)-3-carboxy-7-methyl-(4H)-4-benzopyranone]",25.1
10,"COc1cccc2c(=O)c(C(=O)O)c(-c3cccs3)oc12 [Example 12, 2-(2-thiophenyl)-3-carboxy-8-methoxy-(4H)-4-benzopyranone]",62.5
11,"Cc1ccc2c(=O)c(C(=O)O)c(-c3ccc(Cl)cc3)oc2c1 [Example 69, 2-(4-chlorophenyl)-3-carboxy-7-methyl-(4H)-4-benzopyranone]",14.6
12,"Cc1ccc2oc(-c3ccco3)c(C(=O)O)c(=O)c2c1 [Example 22, 2-(2-furanyl)-3-carboxy-6-methyl-(4H)-4-benzopyranone]",50.4
13,"Cc1cccc(-c2oc3c(C)cccc3c(=O)c2C(=O)O)c1 [Example 25, 2-(3-methylphenyl)-3-carboxy-8-methyl-(4H)-4-benzopyranone]",41
14,"Cc1ccc2oc(-c3ccc(F)c(F)c3)c(C(=O)O)c(=O)c2c1 [Example 66, 2-(3,4-difluorophenyl)-3-carboxy-6-methyl-(4H)-4-benzopyranone]",37
15,"COc1ccc2c(=O)c(C(=O)O)c(-c3cccc(F)c3)oc2c1 [Example 1, 2-(3-fluorophenyl)-3-carboxy-7-methoxy-(4H)-4-benzopyranone]",39.1
16,"COc1ccc2oc(-c3cccs3)c(C(=O)O)c(=O)c2c1 [Example 14, 2-(2-thiophenyl)-3-carboxy-6-methoxy-(4H)-4-benzopyranone]",38.8
17,"COc1ccc(-c2oc3cc(C)ccc3c(=O)c2C(=O)O)cc1OC [Example 38, 2-(3,4-dimethoxyphenyl)-3-carboxy-7-methyl-(4H)-4-benzopyranone]",30.9
18,"Cc1ccc2oc(-c3cc(F)cc(F)c3)c(C(=O)O)c(=O)c2c1 [Example 49, 2-(3,5-difluorophenyl)-3-carboxy-6-methyl-(4H)-4-benzopyranone]",37.7
19,"COc1ccc2c(=O)c(C(=O)O)c(-c3cccc(C)c3)oc2c1 [Example 6, 2-(3-methylphenyl)-3-carboxy-7-methoxy-(4H)-4-benzopyranone]",46

# Same assay, conditions: inhibition of TNF-induced LM cell death
row,SMILES,IC50 [µM]
1,"O=C(O)c1c(-c2ccco2)oc2ccc(Br)cc2c1=O [Example 24, 2-(2-furanyl)-3-carboxy-6-bromo-(4H)-4-benzopyranone]",2.5
2,"COc1cccc2c(=O)c(C(=O)O)c(-c3ccc(Cl)cc3)oc12 [Example 74, 2-(4-chlorophenyl)-3-carboxy-8-methoxy-(4H)-4-benzopyranone]",52.5

# System: not given
# Experiment: not given
# Settings: not given
row,SMILES,melting point [°C]
1,"O=C(O)c1c(-c2ccco2)oc2ccc(Br)cc2c1=O [Example 24, 2-(2-furanyl)-3-carboxy-6-bromo-(4H)-4-benzopyranone]",209 to 211
2,"COc1cccc2c(=O)c(C(=O)O)c(-c3ccc(Cl)cc3)oc12 [Example 74, 2-(4-chlorophenyl)-3-carboxy-8-methoxy-(4H)-4-benzopyranone]",238 to 239
3,"Cc1cccc2c(=O)c(C(=O)O)c(-c3cc(F)ccc3F)oc12 [Example 58, 2-(2,5-difluorophenyl)-3-carboxy-8-methyl-(4H)-4-benzopyranone]",170 to 172
4,"Cc1cccc2c(=O)c(C(=O)O)c(-c3cccs3)oc12 [Example 31, 2-(2-thiophenyl)-3-carboxy-8-methyl-(4H)-4-benzopyranone]",205 to 206
5,"COc1ccc2c(=O)c(C(=O)O)c(-c3ccc(OC)c(OC)c3)oc2c1 [Example 9, 2-(3,4-dimethoxyphenyl)-3-carboxy-7-methoxy-(4H)-4-benzopyranone]",208 to 210
6,"COc1ccc2c(=O)c(C(=O)O)c(-c3ccccc3Cl)oc2c1 [Example 10, 2-(2-chlorophenyl)-3-carboxy-7-methoxy-(4H)-4-benzopyranone]",130 to 132
7,"O=C(O)c1c(-c2cccs2)oc2ccccc2c1=O [Example 15, 2-(2-thiophenyl)-3-carboxy-(4H)-4-benzopyranone]",175 to 176
8,"Cc1ccc2oc(-c3ccc(Cl)cc3)c(C(=O)O)c(=O)c2c1 [Example 70, 2-(4-chlorophenyl)-3-carboxy-6-methyl-(4H)-4-benzopyranone]",212 to 227
9,"Cc1ccc2c(=O)c(C(=O)O)c(-c3ccc(F)c(F)c3)oc2c1 [Example 65, 2-(3,4-difluorophenyl)-3-carboxy-7-methyl-(4H)-4-benzopyranone]",202 to 204
10,"COc1cccc2c(=O)c(C(=O)O)c(-c3cccs3)oc12 [Example 12, 2-(2-thiophenyl)-3-carboxy-8-methoxy-(4H)-4-benzopyranone]",196 to 198
11,"Cc1ccc2c(=O)c(C(=O)O)c(-c3ccc(Cl)cc3)oc2c1 [Example 69, 2-(4-chlorophenyl)-3-carboxy-7-methyl-(4H)-4-benzopyranone]",220 to 222
12,"Cc1ccc2oc(-c3ccco3)c(C(=O)O)c(=O)c2c1 [Example 22, 2-(2-furanyl)-3-carboxy-6-methyl-(4H)-4-benzopyranone]",195 to 197
13,"Cc1cccc(-c2oc3c(C)cccc3c(=O)c2C(=O)O)c1 [Example 25, 2-(3-methylphenyl)-3-carboxy-8-methyl-(4H)-4-benzopyranone]",209 to 211
14,"Cc1ccc2oc(-c3ccc(F)c(F)c3)c(C(=O)O)c(=O)c2c1 [Example 66, 2-(3,4-difluorophenyl)-3-carboxy-6-methyl-(4H)-4-benzopyranone]",222 to 223
15,"COc1ccc2c(=O)c(C(=O)O)c(-c3cccc(F)c3)oc2c1 [Example 1, 2-(3-fluorophenyl)-3-carboxy-7-methoxy-(4H)-4-benzopyranone]",214 to 215
16,"COc1ccc2oc(-c3cccs3)c(C(=O)O)c(=O)c2c1 [Example 14, 2-(2-thiophenyl)-3-carboxy-6-methoxy-(4H)-4-benzopyranone]",172 to 174
17,"COc1ccc(-c2oc3cc(C)ccc3c(=O)c2C(=O)O)cc1OC [Example 38, 2-(3,4-dimethoxyphenyl)-3-carboxy-7-methyl-(4H)-4-benzopyranone]",200 to 201
18,"Cc1ccc2oc(-c3cc(F)cc(F)c3)c(C(=O)O)c(=O)c2c1 [Example 49, 2-(3,5-difluorophenyl)-3-carboxy-6-methyl-(4H)-4-benzopyranone]",238 to 240
19,"COc1ccc2c(=O)c(C(=O)O)c(-c3cccc(C)c3)oc2c1 [Example 6, 2-(3-methylphenyl)-3-carboxy-7-methoxy-(4H)-4-benzopyranone]",183 to 184

# System: not listed separately
# Experiment: Cytotoxicity (CC50) in LM cells, MTT assay
# Assay type: cell-based
# Settings: mouse, LM cells (mouse fibroblasts); 50% cytotoxic concentration
# Experimental: as §1, §2
row,SMILES,CC50 at 24 h [µM]
1,"O=C(O)c1c(-c2ccco2)oc2ccc(Br)cc2c1=O [Example 24, 2-(2-furanyl)-3-carboxy-6-bromo-(4H)-4-benzopyranone]",> 50
2,"COc1cccc2c(=O)c(C(=O)O)c(-c3ccc(Cl)cc3)oc12 [Example 74, 2-(4-chlorophenyl)-3-carboxy-8-methoxy-(4H)-4-benzopyranone]",> 50
